# Measured values published in patent US8987250B2 (Gilead Sciences, Inc., priority 2012, dated 2015).
# Tested on: HIV-IIIb
# Assay: Test A: Antiviral Assay in MT4 Cells
# Type: cell-based
# Conditions: Human immunodeficiency virus 1, IIIB, MT4, 120 h
# Summary of the method: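 Read-out: CellTiter-Glo chemiluminescence after 5-day incubation at 37 °C. Compounds tested as 3-fold serial dilutions (10 concentrations, quadruplicate) in RPMI 1640 with 10% FBS, on MT-4 cells pre-infected at 37 °C with HIV-IIIb at 0.004 m.o.i.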
row,Structure (SMILES),EC50
1,"Cc1cc2nc(-c3ccnc(N4CCn5c(nnc5C(F)(F)F)C4)c3)sc2c(-c2ccc(Cl)cc2)c1[C@H](OC(C)(C)C)C(=O)O [Compound 222, (S)-2-tert-butoxy-2-(7-(4-chlorophenyl)-5-methyl-2-(2-(3-(trifluoromethyl)-5,6-dihydro-[1,2,4]triazolo[4,3-a]pyrazin-7(8H)-yl)pyridin-4-yl)benzo[d]thiazol-6-yl)acetic acid]",49 nM

# Same assay, conditions: Human immunodeficiency virus 1, IIIB, MT4, 120 h, Table 2; MT-4 cells infected with HIV-IIIb, 5 days of incubation, CellTiter-Glo; read-out: EC50
row,Structure (SMILES),EC50
1,"Cc1cc2nc(-c3ccc4c(c3)c(-c3ccncc3)nn4C)sc2c(-c2ccc(Cl)cc2)c1[C@H](OC(C)(C)C)C(=O)O [Compound 213, (S)-2-tert-butoxy-2-(7-(4-chlorophenyl)-5-methyl-2-(1-methyl-3-(pyridin-4-yl)-1H-indazol-5-yl)benzo[d]thiazol-6-yl)acetic acid]",4 nM
2,"Cc1cc2nc(-c3ccc4c(c3)c(-c3ccccn3)nn4C)sc2c(-c2ccc(Cl)cc2)c1[C@H](OC(C)(C)C)C(=O)O [Compound 214, (S)-2-tert-butoxy-2-(7-(4-chlorophenyl)-5-methyl-2-(1-methyl-3-(pyridin-2-yl)-1H-indazol-5-yl)benzo[d]thiazol-6-yl)acetic acid]",17 nM
3,"Cc1cc2nc(-c3ccnc(-c4cc(C)c5c(cnn5C)c4)c3)sc2c(-c2ccc(Cl)cc2)c1[C@H](OC(C)(C)C)C(=O)O [Compound 215, (S)-2-tert-butoxy-2-(7-(4-chlorophenyl)-2-(2-(1,7-dimethyl-1H-indazol-5-yl)pyridin-4-yl)-5-methylbenzo[d]thiazol-6-yl)acetic acid]",27 nM
4,"Cc1cc2nc(-c3ccnc(-c4cc(C)c5nn(C)cc5c4)c3)sc2c(-c2ccc(Cl)cc2)c1[C@H](OC(C)(C)C)C(=O)O [Compound 216, (S)-2-tert-butoxy-2-(7-(4-chlorophenyl)-2-(2-(2,7-dimethyl-2H-indazol-5-yl)pyridin-4-yl)-5-methylbenzo[d]thiazol-6-yl)acetic acid]",15 nM
5,"Cc1cc2nc(-c3ccc4c(c3)nc(C)n4C)sc2c(-c2ccc(Cl)cc2)c1[C@H](OC(C)(C)C)C(=O)O [Compound 217, (S)-2-tert-butoxy-2-(7-(4-chlorophenyl)-2-(1,2-dimethyl-1H-benzo[d]imidazol-5-yl)-5-methylbenzo[d]thiazol-6-yl)acetic acid]",7 nM
6,"Cc1cc2nc(-c3ccnc(N4CCOCC4)c3)sc2c(-c2ccc(Cl)cc2)c1[C@H](OC(C)(C)C)C(=O)O [Compound 218, (S)-2-tert-butoxy-2-(7-(4-chlorophenyl)-5-methyl-2-(2-morpholinopyridin-4-yl)benzo[d]thiazol-6-yl)acetic acid]",116 nM
7,"Cc1cc2nc(-c3ccnc(N4CCN(C)CC4)c3)sc2c(-c2ccc(Cl)cc2)c1[C@H](OC(C)(C)C)C(=O)O [Compound 219, (S)-2-tert-butoxy-2-(7-(4-chlorophenyl)-5-methyl-2-(2-(4-methylpiperazin-1-yl)pyridin-4-yl)benzo[d]thiazol-6-yl)acetic acid]",39 nM
8,"CCN1CCN(c2cc(-c3nc4cc(C)c([C@H](OC(C)(C)C)C(=O)O)c(-c5ccc(Cl)cc5)c4s3)ccn2)CC1 [Compound 220, (S)-2-tert-butoxy-2-(7-(4-chlorophenyl)-2-(2-(4-ethylpiperazin-1-yl)pyridin-4-yl)-5-methylbenzo[d]thiazol-6-yl)acetic acid]",43 nM
9,"Cc1cc2nc(-c3ccnc(N4CCN(C(C)C)CC4)c3)sc2c(-c2ccc(Cl)cc2)c1[C@H](OC(C)(C)C)C(=O)O [Compound 221, (S)-2-tert-butoxy-2-(7-(4-chlorophenyl)-2-(2-(4-isopropylpiperazin-1-yl)pyridin-4-yl)-5-methylbenzo[d]thiazol-6-yl)acetic acid]",24 nM
10,"Cc1cc2nc(-c3ccnc(N4CCn5cnnc5C4)c3)sc2c(-c2ccc(Cl)cc2)c1[C@H](OC(C)(C)C)C(=O)O [Compound 223, (S)-2-tert-butoxy-2-(7-(4-chlorophenyl)-2-(2-(5,6-dihydro-[1,2,4]triazolo[4,3-a]pyrazin-7(8H)-yl)pyridin-4-yl)-5-methylbenzo[d]thiazol-6-yl)acetic acid]",312 nM
11,"Cc1cc2nc(-c3ccnc(N4CCc5c(c(C)nn5C)C4)c3)sc2c(-c2ccc(Cl)cc2)c1[C@H](OC(C)(C)C)C(=O)O [Compound 224, (S)-2-tert-butoxy-2-(7-(4-chlorophenyl)-2-(2-(1,3-dimethyl-6,7-dihydro-1H-pyrazolo[4,3-c]pyridin-5(4H)-yl)pyridin-4-yl)-5-methylbenzo[d]thiazol-6-yl)acetic acid]",12 nM
12,"Cc1cc2nc(-c3ccnc(-c4ccc5c(F)nn(C)c5c4)c3)sc2c(-c2ccc(Cl)cc2)c1[C@H](OC(C)(C)C)C(=O)O [Compound 225, (S)-2-tert-butoxy-2-(7-(4-chlorophenyl)-2-(2-(3-fluoro-1-methyl-1H-indazol-6-yl)pyridin-4-yl)-5-methylbenzo[d]thiazol-6-yl)acetic acid]",96 nM
13,"CCc1cnn2cc(-c3cc(-c4nc5cc(C)c([C@H](OC(C)(C)C)C(=O)O)c(-c6ccc(Cl)cc6)c5s4)ccn3)cnc12 [Compound 226, (S)-2-tert-butoxy-2-(7-(4-chlorophenyl)-2-(2-(3-ethylpyrazolo[1,5-a]pyrimidin-6-yl)pyridin-4-yl)-5-methylbenzo[d]thiazol-6-yl)acetic acid]",36 nM
14,"CCc1cnn2cc(-c3nc4cc(C)c([C@H](OC(C)(C)C)C(=O)O)c(-c5ccc(Cl)cc5)c4s3)cnc12 [Compound 227, (S)-2-tert-butoxy-2-(7-(4-chlorophenyl)-2-(3-ethylpyrazolo[1,5-a]pyrimidin-6-yl)-5-methylbenzo[d]thiazol-6-yl)acetic acid]",85 nM
15,"Cc1cc2nc(-c3cccc(-n4cc(C)c(=O)[nH]c4=O)c3)sc2c(-c2ccc(Cl)cc2)c1[C@H](OC(C)(C)C)C(=O)O [Compound 228, (S)-2-tert-butoxy-2-(7-(4-chlorophenyl)-5-methyl-2-(3-(5-methyl-2,4-dioxo-3,4-dihydropyrimidin-1(2H)-yl)phenyl)benzo[d]thiazol-6-yl)acetic acid]",910 nM
16,"Cc1cc2nc(-c3cccc(-n4ccc(=O)[nH]c4=O)c3)sc2c(-c2ccc(Cl)cc2)c1[C@H](OC(C)(C)C)C(=O)O [Compound 229, (S)-2-tert-butoxy-2-(7-(4-chlorophenyl)-2-(3-(2,4-dioxo-3,4-dihydropyrimidin-1(2H)-yl)phenyl)-5-methylbenzo[d]thiazol-6-yl)acetic acid]",1740 nM
17,"Cc1cc2nc(-c3ccnc(-c4ccc(=O)[nH]c4)c3)sc2c(-c2ccc(Cl)cc2)c1[C@H](OC(C)(C)C)C(=O)O [Compound 230, (S)-2-tert-butoxy-2-(7-(4-chlorophenyl)-5-methyl-2-(2-(6-oxo-1,6-dihydropyridin-3-yl)pyridin-4-yl)benzo[d]thiazol-6-yl)acetic acid]",131 nM
18,"Cc1cc2nc(-c3ccnc(-c4ccc[nH]c4=O)c3)sc2c(-c2ccc(Cl)cc2)c1[C@H](OC(C)(C)C)C(=O)O [Compound 232, (S)-2-tert-butoxy-2-(7-(4-chlorophenyl)-5-methyl-2-(2-(2-oxo-1,2-dihydropyridin-3-yl)pyridin-4-yl)benzo[d]thiazol-6-yl)acetic acid]",86 nM
19,"COc1ncccc1-c1cc(-c2nc3cc(C)c([C@H](OC(C)(C)C)C(=O)O)c(-c4ccc(Cl)cc4)c3s2)ccn1 [Compound 233, (S)-2-tert-butoxy-2-(7-(4-chlorophenyl)-2-(2′-methoxy-2,3′-bipyridin-4-yl)-5-methylbenzo[d]thiazol-6-yl)acetic acid]",33 nM
